Test results as given in publication PMC6277767, “Broad and Region-Specific Impacts of the Synthetic Cannabinoid CP 55,940 in Adolescent and Adult Female Mouse Brains” (Frontiers in Molecular Neuroscience, 2018).

System: CD1 female mouse brain lipidome
Experiment: Brain-region lipid levels (HPLC/MS/MS lipidomics) 2 h after single i.p. 3 mg/kg CP 55,940 vs vehicle
Assay type: in vivo
Procedure: The Bloomington Institutional Animal Care and Use Committee of Indiana University reviewed and approved the animal procedures. Female mice from the CD1 strain were utilized to match our study examining THC’s effects on the brain lipidome ([Leishman et al., 2018]). Mice were given a single i.p. injection of either 3 mg/kg CP or 1:1:18 cremophor:ethanol:saline vehicle (please refer to the section “3 mg/kg CP Is Relevant for Synthetic Cannabinoid Abuse and Has Stronger Effects on the Female Mouse Brain Lipidome During Adolescence” for a justification of dose and use of female mice). Three different age groups were given injections: PND 35 and PND 50 adolescents, and adult mice (PND 113). At least eight mice in each age group received CP and at least eight received vehicle. Matching the THC study time course ([Leishman et al., 2018]), mice were sacrificed via rapid decapitation 2 h after injection. Brains were immediately removed and flash-frozen in liquid nitrogen, and then stored at -80°C until dissections were performed. Brains were dissected on an ice-cold dissection plate into the following regions: STR, HIPP, CER, THAL, CTX, HYP, MID, and STEM. These abbreviations for these brain areas will be used exclusively when discussing the results generated by these specific dissections. Each dissected area was immediately placed in liquid nitrogen and then stored at -80°C until used for lipid extraction.
Tissue extracts were performed as previously described ([Bradshaw et al., 2006]; [Stuart et al., 2013]; [Raboune et al., 2014]; [Leishman et al., 2016a],[b], [2017], [2018]). First, samples were shock frozen in liquid nitrogen, weighed, and transferred to a centrifuge tube. The mass of the largest sample was multiplied by 50 to determine how many milliliters of HPLC-grade methanol (Fisher, Fair Lawn, NJ, United States) to add. Then, samples were spiked with 500 pmol deuterium-labeled NAGly (d8NAGly; Cayman Chemical, Ann Arbor, MI, United States). Samples were placed on ice in darkness for 2 h then individually homogenized and centrifuged at 19,000 × g for 20 min at 20°C. Supernatants were diluted with HPLC water (purified in house) to make a solution of 75% water, 25% supernatant. Lipids were partially purified on C18 solid phase extraction columns (Agilent, Palo Alto, CA, United States). A series of four elutions with 1.5 mL of 60%, 75%, 85%, and 100% methanol were collected ([Stuart et al., 2013]; [Leishman et al., 2016a],[b], [2018]).
As previously described ([Bradshaw et al., 2006]; [Tan et al., 2006]; [Smoum et al., 2010]; [Stuart et al., 2013]; [Tortoriello et al., 2013]; [Raboune et al., 2014]; [Leishman et al., 2016a],[b], [2017], [2018]), samples were analyzed using an Applied Biosystems API 3000 triple quadrupole mass spectrometer with electrospray ionization (Foster City, CA, United States). Using an Agilent XDB-C18 reversed phase analytical column and optimized mobile phase gradients, 20 μL from each elution were chromatographed. Two Shimadzu 10ADvp pumps (Columbia, MD, United States) provided the pressure for gradient elution. Mobile phase A: 20% methanol, 80% water (v/v) and 1 mM ammonium acetate (Sigma, St. Louis, MO, United States). Mobile phase B: 100% methanol, 1 mM ammonium acetate. Every method run began with 0% mobile phase B, reached 100% mobile phase B flowing at 0.2 mL/min, and gradually returned to 0% mobile phase B.
This screening library will be referred to as the lipidome when discussing data from this study. HPLC/MS/MS data were analyzed using Analyst software (Applied Biosystems) ([Bradshaw et al., 2006]; [Tan et al., 2006]; [Stuart et al., 2013]; [Tortoriello et al., 2013]; [Raboune et al., 2014]; [Leishman et al., 2016a],[b], [2017], [2018]). Chromatograms (Supplementary Figure 3) were generated by determining the retention time of analytes from the analytical column with a [M-1] or [M+1] parent peak and a fragmentation peak corresponding to the programmed values. […]

[1] = striatum, adult, 3 mg/kg CP 55,940, one-way ANOVA p .007
[2] = striatum, adult, 3 mg/kg CP 55,940, one-way ANOVA p .015
[3] = striatum, adult, 3 mg/kg CP 55,940, one-way ANOVA p .017
[4] = striatum, adult, 3 mg/kg CP 55,940, one-way ANOVA p .019
[5] = striatum, adult, 3 mg/kg CP 55,940, one-way ANOVA p .043
[6] = striatum, adult, 3 mg/kg CP 55,940, one-way ANOVA p .071
[7] = striatum, adult, 3 mg/kg CP 55,940, one-way ANOVA p .075
[8] = striatum, PND 35, 3mg/kg CP 55,940
[9] = thalamus, PND 50, 3 mg/kg CP 55,940

## CCCCCCC(C)(C)c1ccc([C@@H]2C[C@H](O)CC[C@H]2CCCO)c(O)c1 [CP 55,940]
[1]
  N-docosahexaenoyl ethanolamine, Direction (relative to Veh): ↓
  N-docosahexaenoyl ethanolamine, Magnitude (x Veh level): 0.75 x Veh level
[2]
  N-linoleoyl ethanolamine, Direction (relative to Veh): ↓
  N-linoleoyl ethanolamine, Magnitude (x Veh level): 0.68 x Veh level
[3]
  N-arachidonoyl ethanolamine, Direction (relative to Veh): ↓
  N-arachidonoyl ethanolamine, Magnitude (x Veh level): 0.66 x Veh level
[4]
  Arachidonic acid, Direction (relative to Veh): ↓
  Arachidonic acid, Magnitude (x Veh level): 0.87 x Veh level
[5]
  N-oleoyl ethanolamine, Direction (relative to Veh): ↓
  N-oleoyl ethanolamine, Magnitude (x Veh level): 0.65 x Veh level
  N-oleoyl leucine Direction (relative to Veh): ↑
  N-oleoyl leucine Magnitude (x Veh level): 1.20 x Veh level
[6]
  2-arachidonoyl glycerol, Direction (relative to Veh): ↓
  2-arachidonoyl glycerol, Magnitude (x Veh level): 0.78 x Veh level
[7]
  N-palmitoyl serine, Direction (relative to Veh): ↓
  N-palmitoyl serine, Magnitude (x Veh level): 0.79 x Veh level
[8]
  2-arachidonoyl glycerol: Direction (relative to Veh): ↓
  2-arachidonoyl glycerol: Magnitude (x Veh level): 0.70 x Veh level
  2-linoleoyl glycerol: Direction (relative to Veh): ↓
  2-linoleoyl glycerol: Magnitude (x Veh level): 0.57 x Veh level
  2-oleoyl glycerol: Direction (relative to Veh): ↓
  2-oleoyl glycerol: Magnitude (x Veh level): 0.86 x Veh level
  N-arachidonoyl GABA: Direction (relative to Veh): ↓
  N-arachidonoyl GABA: Magnitude (x Veh level): 0.66 x Veh level
  N-arachidonoyl alanine: Direction (relative to Veh): ↓
  N-arachidonoyl alanine: Magnitude (x Veh level): 0.77 x Veh level
  N-arachidonoyl glycine: Direction (relative to Veh): ↓
  N-arachidonoyl glycine: Magnitude (x Veh level): 0.87 x Veh level
  N-arachidonoyl phenylalanine: Direction (relative to Veh): ↓
  N-arachidonoyl phenylalanine: Magnitude (x Veh level): 0.83 x Veh level
  N-arachidonoyl serine: Direction (relative to Veh): ↓
  N-arachidonoyl serine: Magnitude (x Veh level): 0.64 x Veh level
  N-arachidonoyl taurine: Direction (relative to Veh): ↓
  N-arachidonoyl taurine: Magnitude (x Veh level): 0.91 x Veh level
  N-arachidonoyl tyrosine: Direction (relative to Veh): ↓
  N-arachidonoyl tyrosine: Magnitude (x Veh level): 0.77 x Veh level
  N-docosahexaenoyl GABA: Direction (relative to Veh): ↓
  N-docosahexaenoyl GABA: Magnitude (x Veh level): 0.68 x Veh level
  N-docosahexaenoyl alanine: Direction (relative to Veh): ↓
  N-docosahexaenoyl alanine: Magnitude (x Veh level): 0.72 x Veh level
  N-docosahexaenoyl ethanolamine: Direction (relative to Veh): ↓
  N-docosahexaenoyl ethanolamine: Magnitude (x Veh level): 0.74 x Veh level
  N-docosahexaenoyl leucine: Direction (relative to Veh): ↑
  N-docosahexaenoyl leucine: Magnitude (x Veh level): 1.46 x Veh level
  N-docosahexaenoyl serine: Direction (relative to Veh): ↓
  N-docosahexaenoyl serine: Magnitude (x Veh level): 0.68 x Veh level
  N-oleoyl GABA: Direction (relative to Veh): ↓
  N-oleoyl GABA: Magnitude (x Veh level): 0.76 x Veh level
  N-oleoyl alanine: Direction (relative to Veh): ↓
  N-oleoyl alanine: Magnitude (x Veh level): 0.89 x Veh level
  N-oleoyl ethanolamine: Direction (relative to Veh): ↓
  N-oleoyl ethanolamine: Magnitude (x Veh level): 0.60 x Veh level
  N-oleoyl glycine: Direction (relative to Veh): ↓
  N-oleoyl glycine: Magnitude (x Veh level): 0.88 x Veh level
  N-palmitoyl ethanolamine: Direction (relative to Veh): ↓
  N-palmitoyl ethanolamine: Magnitude (x Veh level): 0.72 x Veh level
  N-palmitoyl leucine: Direction (relative to Veh): ↑
  N-palmitoyl leucine: Magnitude (x Veh level): 1.17 x Veh level
  N-palmitoyl valine: Direction (relative to Veh): ↑
  N-palmitoyl valine: Magnitude (x Veh level): 1.68 x Veh level
  N-stearoyl alanine: Direction (relative to Veh): ↓
  N-stearoyl alanine: Magnitude (x Veh level): 0.90 x Veh level
  N-stearoyl leucine: Direction (relative to Veh): ↓
  N-stearoyl leucine: Magnitude (x Veh level): 0.81 x Veh level
  N-stearoyl serine: Direction (relative to Veh): ↓
  N-stearoyl serine: Magnitude (x Veh level): 0.86 x Veh level
  N-stearoyl valine: Direction (relative to Veh): ↑
  N-stearoyl valine: Magnitude (x Veh level): 1.43 x Veh level
  PGE2: Direction (relative to Veh): ↑
  PGE2: Magnitude (x Veh level): 1.25 x Veh level
  PGF2α: Direction (relative to Veh): ↑
  PGF2α: Magnitude (x Veh level): 1.30 x Veh level
[9]
  2-arachidonoyl glycerol: Direction (relative to Veh): ↓
  2-arachidonoyl glycerol: Magnitude (x Veh level): 0.84 x Veh level
  2-linoleoyl glycerol: Direction (relative to Veh): ↓
  2-linoleoyl glycerol: Magnitude (x Veh level): 0.68 x Veh level
  2-oleoyl glycerol: Direction (relative to Veh): ↓
  2-oleoyl glycerol: Magnitude (x Veh level): 0.78 x Veh level
  6-ketoPGF1α: Direction (relative to Veh): ↑
  6-ketoPGF1α: Magnitude (x Veh level): 1.52 x Veh level
  Arachidonic acid: Direction (relative to Veh): ↓
  Arachidonic acid: Magnitude (x Veh level): 0.77 x Veh level
  Linoleic acid: Direction (relative to Veh): ↓
  Linoleic acid: Magnitude (x Veh level): 0.73 x Veh level
  N-arachidonoyl GABA: Direction (relative to Veh): ↓
  N-arachidonoyl GABA: Magnitude (x Veh level): 0.68 x Veh level
  N-arachidonoyl ethanolamine: Direction (relative to Veh): ↓
  N-arachidonoyl ethanolamine: Magnitude (x Veh level): 0.85 x Veh level
  N-arachidonoyl glycine: Direction (relative to Veh): ↓
  N-arachidonoyl glycine: Magnitude (x Veh level): 0.63 x Veh level
  N-arachidonoyl phenylalanine: Direction (relative to Veh): ↓
  N-arachidonoyl phenylalanine: Magnitude (x Veh level): 0.51 x Veh level
  N-arachidonoyl taurine: Direction (relative to Veh): ↓
  N-arachidonoyl taurine: Magnitude (x Veh level): 0.88 x Veh level
  N-arachidonoyl tyrosine: Direction (relative to Veh): ↓
  N-arachidonoyl tyrosine: Magnitude (x Veh level): 0.78 x Veh level
  N-docosahexaenoyl GABA: Direction (relative to Veh): ↓
  N-docosahexaenoyl GABA: Magnitude (x Veh level): 0.70 x Veh level
  N-linoleoyl GABA: Direction (relative to Veh): ↓
  N-linoleoyl GABA: Magnitude (x Veh level): 0.57 x Veh level
  N-palmitoyl leucine: Direction (relative to Veh): ↑
  N-palmitoyl leucine: Magnitude (x Veh level): 1.27 x Veh level
